From patent US20040097534A1, “Composition for the protection and regeneration of nerve cells containing berberine derivatives” (EUGENBIO INC., priority 2001, published 2004)
Several values for one entry are separate records, joined by “and”; a condition that tells them apart may be missing. Equal values may be shown once. Entries after “also recorded” stand apart in the source; their conditions may differ.

How the values were obtained:
HiB5 cells = assay: Induction of differentiation of HiB5 cells into nerve cells (neurite count, confocal); format: cell-based, white rat; settings: HiB5, berberine, 2 days
Description: (§1) Thereafter, the culture was treated with berberine and further cultured for 2 days. The cultured cells were immunostained with nerve cell-specific labeled molecule, and then the number of cells having neurites longer than cell bodies was counted under a confocal microscope. A positive control was treated with bFGF under the same condition as described above to induce the differentiation into nerve cells. In addition, the neuroregenerative effect was examined after berberine together with bFGF was treated. The differentiation degree was measured by double-staining neurites with nerve cell-specific labeled molecule (anti-neurofilament antibody) and FITC-labeled secondary antibody (green), followed by staining cell nuclei with propidium iodide (red).

SH-SY5Y cells = assay: Neurite regeneration in SH-SY5Y cells; format: cell-based, human
Description: as §1, with “(red). In order to examine the effect of berberine on neurite regeneration, SH-SY5Y cells were used as differentiated nerve cell lines. Retinoic acid inducing neurite growth was used as a positive control.” for “(red).”

[1] = system: neuromuscular junctions of hindlimb muscles; assay: Regeneration of nerve endings at neuromuscular junctions after sciatic nerve crush; format: in vivo, white rat; settings: 4 weeks after operation, hindlimb muscle
Text: In order to see whether berberine influences the regeneration of nerve endings in the neuromuscular junctions, 4 weeks after operation, hindlimb muscles connected to sciatic nerves were separated and cryosected. The neuromuscular junctions were stained using beta-tubulin isotypeIII and neurofilament, which are nerve markers.

[2] = system: nerve cells in cerebral slices; assay: Apoptosis of nerve cells induced by MK-801, TUNEL staining of cerebral slices; format: in vivo; settings: for apoptosis of nerve cells (TUNEL staining): berberine (5 mg/kg) alone, intraperitoneal, young white rats
Text: All groups were intraperitoneally injected.
Experimental animals were sacrificed under anesthetization and their brains were excised. The excised brains were fixed with formalin and tissue sections were obtained. The tissue sections were stained by TUNEL method, and photographed (×1.25 and ×400) using an optical microscope (Olympus BX 50).
The number of TUNEL-positive dead nerve cells in the same area of cerebral slices of 12 rats per group was counted, and the numbers were averaged (FIG. 1).

sciatic nerves = assay: Regeneration of crushed sciatic nerves (axons, myelin sheaths); format: in vivo, Sprague-Dawley white rat; settings: 3 weeks, berberine intraperitoneal
[3] = system: nerve cells in CA1, dentate gyrus and entorhinal cortex; assay: Animal model for dementia (ibotenic acid into entorhinal cortex), calbindin-positive neuron count; format: in vivo, rat
Description: After white rat brain was fixed with a stereotaxic frame, 1.5 μl (1 mg/ml) of ibotenic acid and PBS, or 1.5 μl (1 mg/ml) of berberine was injected into the entorhinal cortex region using a microinjector to prepare a model for dementia. […]
Brain was fixed with 4% paraformaldehyde and cryosected to a thickness of 40 μm, and then the cryosected brain was permeablized with 0.5% Triton X-100 for 20 minutes and blocked using 15% blocking serum for 2 hours. After reacting with anti-calbindin antibody at a temperature 4° C. for 16 hours and then further reacting with FITC-labeled secondary antibody or rhodamin (TRITC)-labeled secondary antibody for 1 hour, the cells were fixed on a slide before examining under a confocal microscope.
As an animal model for dementia, ibotenic acid was microinjected into the entorhinal cortex of adult rat brain using a stereotaxic frame.
First, an adult rat was anesthetized, and its head was fixed with a stereotaxic frame. Subsequently, 1.5 μl (1 mg/ml) of ibotenic acid was injected into the entorhinal cortex region to prepare a model for dementia, and then berberine was injected into the same site. 2 weeks after operation, brain tissue sections were counter-stained with hematocylin to examine apoptosis and protective effect. After fluorescence-staining the cells, regions used for cell count were represented as squares (FIG. 14). In addition, the cells were fluorescence-stained with calbindin antibody, a nerve-specific marker, to examine nerve cell survival (see, Tables 8 to 10, FIGS. 11 and 12).

PC12 cells = assay: MTT assay, PC12 survival under dexamethasone (glucocorticoid) stress; format: cell-based, rat
Description: Cell injuries under condition of serum deprivation-induced stress and oxidative stress were measured by MTT assay. For MTT assay, Cells were seeded into N2 medium in an amount of 7.5×10^3 cells, and then a neurotoxin or a nerve growth factor was added thereto to differentiate the cells and then 0.1 volume of 4 mg/ml MTT was further added. The mixture was stored at 37° C. for 3-4 hours. After 100 μl of solubilization buffer was added to the mixture and then stored for 24 hours, O.D. values were measured by ELISA assay.
Glucocorticoids are hormones secreted from the adrenal glands, and involve in a variety of metabolic processes including glycometabolism. In particular, stress causes release of glucocorticoids to reduce cell divisions of neuronal stem cells in the brain and induce apoptosis of nerve cells. Therefore, PC12 cells were treated with dexamethasone, a glucocorticoid derivative, to examine the effect of berberine against apoptosis of nerve cells. 3 hours after treatment with berberine, dexamethasone (1) was added to a culture solution and incubated for 2 days to induce neuroregeneration (see, Table 5 and FIG. 5b).

[4] = Ibotenic Acid + Berberine, 2 weeks after operation
[5] = berberine injected after ibotenic acid
[6] = N2 + dexamethasone + berberine 0.25 μg/ml
[7] = N2 + dexamethasone + berberine 1.5 μg/ml
[8] = N2 + dexamethasone + berberine 3 μg/ml

SMILES: COc1ccc2cc3[n+](cc2c1OC)CCc1cc2c(cc1-3)OCO2 [Berberine, 7,8,13,13a-tetradihydro-9,10-dimethoxy-2,3-(methylenedioxy) berbinium]
- number of cells differentiated into nerve cells, increase (HiB5 cells): increased two times
- Number of differentiated cells (HiB5 cells; N2 = 3.07): 7.87
- Average (%) of differentiated cells (HiB5 cells; N2 = 14.46): 31.57%
- total average cell numbers (HiB5 cells; N2 = 22.38): 26.61
- length of neurites (SH-SY5Y cells; berberine): lengthened the length of neurites
- total number of nerve cells, increase (SH-SY5Y cells; berberine): increased two times; also recorded: doubled
- Average (%) of differentiated cells (SH-SY5Y cells; berberine 0.25 μg/ml): 63.34%
- Number of differentiated cells (SH-SY5Y cells; berberine 0.25 μg/ml): 26.51
- total average cell numbers (SH-SY5Y cells; berberine 0.25 μg/ml): 39.75
- Average (%) of differentiated cells (SH-SY5Y cells; berberine 1.5 μg/ml): 71.04%
- Number of differentiated cells (SH-SY5Y cells; berberine 1.5 μg/ml): 27.89
- total average cell numbers (SH-SY5Y cells; berberine 1.5 μg/ml): 38.80
- Average (%) of differentiated cells (SH-SY5Y cells; berberine 3 μg/ml): 73.95%
- Number of differentiated cells (SH-SY5Y cells; berberine 3 μg/ml): 28.64
- total average cell numbers (SH-SY5Y cells; berberine 3 μg/ml): 38.60
- regeneration of nerve endings / formation of neuromuscular junctions [1]: spread to all muscle fibers; also recorded: reached all muscle fibers to form neuromuscular junctions
- apoptosis of nerve cells (TUNEL staining) [2]: did not induce apoptosis of nerve cells
- apoptosis of nerve cells (TUNEL staining) ([2]; listed as berberine): apoptosis of nerve cells was not observed
- inhibition of apoptosis of nerve cells induced by MK-801 ([2]; pretreated with berberine (5 mg/kg) for 5 days, then MK-801 (0.5 mg/kg) i.p.): considerably inhibits apoptosis of nerve cells induced by MK-801
- number of axons longer than 300 μm (sciatic nerves; PBS = 21.3): 51.6
- number of myelin sheaths longer than 200 μm (sciatic nerves; PBS = 40): 112
- cell number (%) relative to Ibotenic Acid, CA, average ([3]; Berberine alone): 311%
- cell number (%) relative to Ibotenic Acid, DG, average ([3]; Berberine alone): 204%
- cell number (%) relative to Ibotenic Acid, ENT, average ([3]; Berberine alone): 225%
- cell number relative to Ibotenic Acid average = 100, CA (individual animals #1-#3) ([3]; Berberine alone): 355 and 257 and 320
- cell number relative to Ibotenic Acid average = 100, DG (individual animals #1-#3) ([3]; Berberine alone): 229 and 189 and 195
- cell number relative to Ibotenic Acid average = 100, ENT (individual animals #1-#3) ([3]; Berberine alone): 237 and 208 and 229
- cell number, CA (individual animals #1-#3) ([3]; Berberine alone): 174 and 126 and 157
- cell number, CA, AVR ([3]; Berberine alone): 152.3
- cell number, DG (individual animals #1-#3) ([3]; Berberine alone): 421
- cell number, DG, AVR ([3]; Berberine alone): 375.3
- cell number, ENT (individual animals #1-#3) ([3]; Berberine alone): 173 and 152 and 167
- cell number, ENT, AVR ([3]; Berberine alone): 164
- cell number (%) relative to Ibotenic Acid, CA, average ([3]; Ibotenic Acid + Berberine): 278%
- cell number (%) relative to Ibotenic Acid, DG, average ([3]; Ibotenic Acid + Berberine): 190%
- cell number (%) relative to Ibotenic Acid, ENT, average ([3]; Ibotenic Acid + Berberine): 126%
- cell number relative to Ibotenic Acid average = 100, CA (individual animals #1-#3) ([3]; Ibotenic Acid + Berberine): 231 and 337 and 267
- cell number relative to Ibotenic Acid average = 100, DG (individual animals #1-#3) ([3]; Ibotenic Acid + Berberine): 221 and 157 and 191
- cell number relative to Ibotenic Acid average = 100, ENT (individual animals #1-#3) ([3]; Ibotenic Acid + Berberine): 129 and 122 and 127
- cell number, CA, AVR ([3]; Ibotenic Acid + Berberine): 136.3
- cell number, DG, AVR ([3]; Ibotenic Acid + Berberine): 348.7
- cell number, ENT, AVR ([3]; Ibotenic Acid + Berberine): 92
- cell number, CA (individual animals #1-#3) [3, 4]: 113 and 165 and 131
- cell number, DG (Dentate Gyrus) (individual animals #1-#3) [3, 4]: 406 and 289 and 351
- cell number, ENT (Entorhinal Cortex) (individual animals #1-#3) [3, 4]: 94 and 89 and 93
- survival of calbindin-positive neurons in the entorhinal cortex [3, 5]: somewhat increased
- survival rates of granule cells in the dentate gyrus regions, increase [3, 5]: doubled; also recorded: two times
- survival rates of pyramidal cells in the CA1 region, increase [3, 5]: 2.5 times
- Average (O.D. relative to dexamethasone alone) (PC12 cells; [6]): 111%
- O.D. (PC12 cells; [6]): 0.214
- Average (O.D. relative to dexamethasone alone) (PC12 cells; [7]): 127%
- O.D. (PC12 cells; [7]): 0.245
- Average (O.D. relative to dexamethasone alone) (PC12 cells; [8]): 132%
- O.D. (PC12 cells; [8]): 0.253
- cell survival rate increase (PC12 cells; dexamethasone stress, 2 days): about 1.3 times
